Where two headings read alike, the source gives them in different places.
Key:
[1] = Metabolite profiling of ADP in excreta, plasma and bile (LC-v.ARC/MS-IT-TOF); type: in vivo, broilers; details: for percentage of the individual metabolite compared with the total concentration of ADP-related: within 6 h after dosing; for Average percentage of ADP and its metabolites in total dose: Broilers, Excreta, single oral 5 mg/kg b.w. ^3H-ADP
Procedure: (§1) Animals (4 swine, 6 broilers, 6 carp, and 3 male and 3 female rats) were housed individually in clean, suspended wire-mesh metabolism cages, designed to separate the urine from the feces (carp were raised in individual aquaria). Each animal was weighed and assigned with a permanent identification number. A single dose of ^3 H-ADP (5 mg/kg b. w., 0.1 Ci/g) was administered via the oral gavage. Excreta were collected on ice at the pre-administration, in the period of 6, 12, and 24 h on day 1 d, and afterwards, intermittently in the period of 24 h up to 14 d. The piscine excreta were collected by changing and collecting raised water. The total volume or weight of each sample was measured and homogenized. The total radioactivity levels were determined through LSC for the recovery calculations. After the preparation, the samples were analyzed through LC/MS-IT-TOF with v. ARC radiometric detection (XenoBioticLaboratories, Inc.) for metabolite profiling. The pretreatment samples were used as controls to determine the background radioactivity or the endogenous nondrug-related ions observed within respective matrices or their extracts.
(§2) A total of 36 animals from each species (swine n = 24) were randomly assigned to six equal treatment groups and administered a single daily dose of ^3 H-ADP at 5 mg/kg b. w. (0.1 Ci/g) through oral gavage for 7 consecutive days. All the animals were housed on the basis of their group in the cages or aquaria throughout the whole study period. A group of animals was slaughtered through exsanguination under diethyl ether inhalation of anesthesia in the period of 6 h, 1, 3, 7, 14, and 21 d after the administration. The blood samples were immediately collected into the heparinized tubes and was centrifuged at 1920 × g at 4 °C for 10 min to obtain the plasma. The tissues from the heart, liver, spleen, lung, kidney, craw (broilers), stomach, intestine, fat, skin, muscle, thymus, pancreas, bile, bladder, hair (scale for carp), genital gland, adrenal glands, swim bladder (carp), brain, lymph, and bursa (broilers) were carefully excised and collected. The tissues were thoroughly rinsed with the deionized water to remove the residuary blood, blotted to dryness, and finally to perform the homogenization. In order to avoid cross-contamination the dissecting instruments were washed during the tissue procurements. The blank tissues were collected in order to provide control matrices. The total radioactivity levels in each sample were determined through LSC. The samples extracted from the plasma, bile, and tissues of the liver, kidney, muscle, and fat/skin were analyzed through LC/MS-IT-TOF and v. ARC radiometric detection for metabolite profiling. The blank samples were used as control to determine the background radioactivity or the endogenous nondrug-related ions observed within respective matrices or their extracts.
(§3) For metabolite profiling, the urine and feces samples from each animals were pooled proportionally to the excreted amount in each sampling period from 0 to 6 h, 6 h to 1 d, 1 to 3 d, 3 to 7 d, and 7 to 14 d post-dose, respectively. All samples were fully homogenized before the process. The pre-dose and blank samples served as the controls for determining the background radioactivity or the endogenous, nondrug-related ions observed within respective matrices or their extracts.
(§4) The urine samples (plasma, bile and raised water for carp) was subjected to solid-phase extraction with an Oasis MCX cartridge (3 mL, […]; Waters, Milford, MA, USA) for metabolite purification and enrichment. The pH value was adjusted to 2.8–3.2 by adding 1 M hydrochloric acid (HCl), and 2 mL of the sample was transferred into MCX cartridge, which was preconditioned with 3 mL of methanol and 3 mL of 0.1 mol/L HCl solution. The cartridge was washed with 3 mL of 0.1 mol/L HCl solution and was eluted with 5 mL of NH4OH/methanol (4:96, v:v). The effluent was concentrated to dryness under a stream of nitrogen at 40 °C. […]

[2] = as above; type: in vivo, rats; details: for Average percentage of ADP and its metabolites in total dose: Rat, single oral 5 mg/kg b.w. ^3H-ADP; for percentage of the individual metabolite compared with the total concentration of ADP-related: within 6 h after dosing
Procedure: as §1, §2, §3, §4

[3] = Concentration and elimination of ADP and its metabolites in liver, kidney, muscle, fat/skin after oral ^3H-ADP for 7 d; type: in vivo, swine; details: for half-life: pig, po; for concentration at 0.25 d / concentration at 1 d / concentration at 3 d / concentration at 7 d / concentration at 14 d: swine, oral, 5 mg/kg b.w.
Procedure: as §2
The feces and tissues (2 g) were diluted with a mixture of methanol and chloroform (1:3, v:v; 2 mL/g homogenate). This procedure was carried out in a fume hood for the safety aspects. The pH value was adjusted to 9.0 with NH4OH. The mixture was vortexed and sonicated for 5 min and 10 min, respectively, and finally the samples were centrifuged at 7690 × g for 10 min. The supernatant was aspirated and then transferred into a new centrifuge tube. The obtained pellet was again subjected to the same process of vortex, ultrasonication, extraction, and centrifugation. The combined supernatant was concentrated under a stream of nitrogen in a water bath at 40 °C. The residue was reconstituted with 0.3 mL of methanol–water (1:9, v:v) before the injection into the LC-v. ARC/MS-IT-TOF system for analysis.
ADP and its metabolites in the prepared samples were determined with a v. ARC radiometric detector and a hybrid IT/TOF mass spectrometer connected to the HPLC system (Shimadzu Corp., Kyoto, Japan). The LC system was equipped with a solvent delivery pump (LC-20AD), an auto-sampler (SIL-20AC), a degasser (DGU-20 A 3), a photodiode array detector (SPD-M20A), a communication base module (CBM-20 A), and a column oven (CTO-20AC). The chromatographic separation was achieved by using an Agilent extend-C18 column (2.1 mm × 150 mm, 5 μm) with a gradient mobile phase of A (0.01% ammonia and 5 mM ammonium acetate in water) and B (methanol) at a flow rate of 0.2 mL/min. The column temperature was maintained at 35 °C. Various HPLC methods were performed because of the large number of different metabolites to be analyzed. For the porcine sample, method 1 started at 5% B and increased to 20% B over 35 min, then to 55% B by 60 min, followed by re-equilibration for another 10 min. For the remaining samples, method 2 started at 10% B and increased to 60% B over 30 min, subsequently was maintained at 60% B for an additional 10 min, and then changed to 90% B over 2 min and maintained for 2 min. Afterwards, a re-equilibration step (decreased to 10% B over 1 min and maintained at 10% B for additional 9 min) was followed. For each matrix, more than 98% of the radioactivity injected into the column was eluted during the running time of the gradient program. […]

[4] = swine kidney, after 5 mg/kg b. w. for 7 days, read-out: t1/2 of the individual compound (converted)
[5] = swine liver, after 5 mg/kg b. w. for 7 days, read-out: t1/2 of the individual compound (converted)
[6] = swine muscle, after 5 mg/kg b. w. for 7 days, read-out: t1/2 of the individual compound (converted)
[7] = tissues (liver, kidney, muscle, fat/skin), 5 mg/kg, swine tissues, read-out: t1/2 of the individual compound, range over tissues

Row | SMILES | percentage of the individual metabolite compared with the total concentration of ADP-related ([1]; Broilers Extra (excreta)) | percentage of the individual metabolite compared with the total concentration of ADP-related ([1]; Broilers Plasma) | Average percentage of ADP and its metabolites in total dose [1] | Average percentage of ADP and its metabolites in total dose ([2]; Feces) | Average percentage of ADP and its metabolites in total dose ([2]; Urine) | percentage of the individual metabolite compared with the total concentration of ADP-related ([2]; Rats Feces) | percentage of the individual metabolite compared with the total concentration of ADP-related ([2]; Rats Plasma) | percentage of the individual metabolite compared with the total concentration of ADP-related ([2]; Rats Urine) | half-life [3, 4] | half-life [3, 5] | half-life [3, 6] | concentration at 0.25 d ([3]; fat) | concentration at 0.25 d ([3]; kidney) | concentration at 1 d ([3]; kidney) | concentration at 3 d ([3]; kidney) | concentration at 0.25 d ([3]; liver) | concentration at 1 d ([3]; liver) | concentration at 3 d ([3]; liver) | concentration at 0.25 d ([3]; muscle) | concentration at 1 d ([3]; muscle) | also measured
1 | COc1cc(Cc2cnc(N)nc2N)cc(OC)c1N(C)C [A0, 2,4-Diamino-5-[4-(dimethylamino)-3,5-dimethoxybenzyl] pyrimidine] | 63.2% | 51.6% | 64.3% | 14.0% | 61.3% | 79.4% | 75.0% | 71.2% | 80.9 h | 105 h | 38.9 h | 1270 ± 430 ng/g | 19000 ± 8810 ng/g | 4160 ± 2000 ng/g | 1080 ± 220 ng/g | 7600 ± 1040 ng/g | 3010 ± 900 ng/g | 1320 ± 270 ng/g | 1490 ± 390 ng/g | 890 ± 220 ng/g | half-life ([3]; swine fat, after 5 mg/kg b. w. for 7 days, read-out: t1/2 of the individual compound (converted)): 80.9 h; half-life [3, 7]: 38.9 to 105 h; share of the sample radioactivity in the detected tissues ([3]; swine liver, kidney, muscle, fat, over the sampling times): more than 42%; concentration at 1 d ([3]; fat): 510 ± 120 ng/g; concentration at 3 d ([3]; fat): 330 ± 70 ng/g; concentration at 7 d ([3]; fat): 150 ± 30 ng/g; concentration at 7 d ([3]; kidney): 360 ± 90 ng/g; concentration at 14 d ([3]; kidney): 110 ± 20 ng/g; concentration at 7 d ([3]; liver): 820 ± 140 ng/g; concentration at 14 d ([3]; liver): 240 ± 50 ng/g; concentration at 3 d ([3]; muscle): 380 ± 90 ng/g; concentration at 7 d ([3]; muscle): 70 ± 10 ng/g
2 | CNc1c(OC)cc(Cc2cnc(N)nc2N)cc1OC [A1, N-monodesmethyl-ADP] | 12.8% | 23.4% | 13.7% | 2.7% | 13.8% | 20.4% | 19.0% | 14.7% | 21.8 h | 25 h | 17.5 h | 300 ± 70 ng/g | 15400 ± 5300 ng/g | 3430 ± 1250 ng/g | 160 ± 40 ng/g | 4620 ± 850 ng/g | 1650 ± 330 ng/g | 640 ± 110 ng/g | 850 ± 250 ng/g | 150 ± 40 ng/g | half-life [3, 7]: 17.5 to 25 h; concentration at 1 d ([3]; fat): 60 ± 10 ng/g; concentration at 7 d ([3]; kidney): 20 ng/g; concentration at 3 d ([3]; muscle): 50 ± 10 ng/g
3 | COc1cc(Cc2cnc(N)nc2N)cc(OC)c1N [A2, N-didesmethyl-ADP] | 6.5% | 12.6% | 4.8% | 0.7% | 1.1% | 0.3% | 6.0% | 2.6% | 10.1 h | 23.8 h |  | 70 ± 10 ng/g | 6360 ± 1040 ng/g | 1300 ± 400 ng/g | 20 ± 10 ng/g | 2440 ± 480 ng/g | 840 ± 110 ng/g | 310 ± 80 ng/g | 160 ± 40 ng/g | 50 ± 10 ng/g | half-life ([3]; 5 mg/kg, kidney and liver of swine and rat, read-out: t1/2 of the individual compound, range over tissues): 10.1 to 38.6 h

— PMC4738305, “Metabolism and Disposition of Aditoprim in Swine, Broilers, Carp and Rats” (Scientific Reports, 2016)
